# “Also recorded” adds a separate entry of the source.
# Target: T1, TNFα trimer / TNFR1 (Homo sapiens, UniProt P01375)
# T1 construct: human TNFα residues V77-L233 followed by two additional repeats; human TNFα residues D86-L233 linked together by Ser-Gly-Ser
# Assay: Analytical size exclusion chromatography of TNFα/TNFR1/compound complexes, protocol 2
# Assay type: binding
# Conditions: compound 200 μM (1:10 trimers:compound); 3.5 fold excess of receptors
# Protocol: Size exclusion chromatography was used to determine the number of TNFR1 receptors bound to TNFα in the absence or presence of different compounds. Compound (2) was tested under the conditions described in protocol 1 below. Compound (5) was tested as described in protocol 2.
# Compound (5) was added to 20 μM of TNFα trimer at a final concentration of 200 μM (ratio of 1:10 trimers:compound) with DMSO concentration held constant at 2.0%. The sample of TNFα and compound were incubated overnight at a temperature of 4° C. Receptors at a final concentration of 35 μM were added to 10 μM trimer-compound complex (3.5 fold excess of receptors over the trimer-compound complex). The final concentration of DMSO was 1.0%. The mixture was incubated for 1 hour at 22° C.
# The conditions for analytical size exclusion using HPLC were as follows: injection volume: 50 μl; Superdex 200HR 10/300, L×I.D. 30 cm×10 mm column, 13-15 μm particle size; and a buffer of 10 mM HEPES, pH 7.5, 150 mM NaCl.
# The TNFα was a single polypeptide chain of trimeric human TNFα composed of human TNFα residues V77-L233 followed by two additional repeats of human TNFα residues D86-L233 linked together by Ser-Gly-Ser (sequences are based on UniProt […]). Human TNFR1 was (V43-N184)(N54D, C182S) based on sequence UniProt P19438. […]
# T1 sequence (P01375 with tags, fused parts or gaps): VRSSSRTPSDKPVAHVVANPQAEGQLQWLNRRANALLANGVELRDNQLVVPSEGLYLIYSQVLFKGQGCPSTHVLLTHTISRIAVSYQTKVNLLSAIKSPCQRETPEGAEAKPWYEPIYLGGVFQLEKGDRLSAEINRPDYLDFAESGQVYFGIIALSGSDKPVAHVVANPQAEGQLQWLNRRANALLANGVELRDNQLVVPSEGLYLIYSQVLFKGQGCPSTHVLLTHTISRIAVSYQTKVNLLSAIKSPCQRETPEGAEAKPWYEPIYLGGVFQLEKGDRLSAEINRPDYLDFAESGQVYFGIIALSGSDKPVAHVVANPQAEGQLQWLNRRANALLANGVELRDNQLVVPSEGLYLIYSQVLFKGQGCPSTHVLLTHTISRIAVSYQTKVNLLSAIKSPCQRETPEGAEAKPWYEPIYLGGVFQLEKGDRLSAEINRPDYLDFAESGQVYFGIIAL
compound,measurement,value
"Cc1nc2cc(F)c(-c3cnc(N4CC(O)(C(F)(F)F)C4)nc3)cn2c1[C@@H](O)c1ccccc1OC(F)F (single isomer, unassigned) [compound (5)]",number of receptors binding per trimer (SEC peak position vs mutant TNFα controls),a mixture of two receptors and one receptor; also recorded: moved closer to 1 receptor bound
